The record followed here is US20200016200A1, “MODULATING CYTOTOXIC CELL LYTIC GRANULE POSITIONING TO PROMOTE DIFFUSE KILLING IN CELLULAR THERAPIES” (Baylor College of Medicine, priority 2016, published 2020).

Entries after “also recorded” stand apart in the source; their conditions may differ.

In data set [1] the test system is CD19 CAR NK cells. Kind of data set: Standard 4-hour 51Cr cytotoxicity assay, bystander killing. The data set is classed as cell-based. The conditions noted are these: for more bystander cells lysed compared to DMSO: wildtype Daoy bystanders, Daoy-CD19 inciting targets. Here is the method: FIG. 22. Bystander killing with increasing amounts of ciliobrevin D in the presence of CD19 CAR-bearing NK cells. Standard 4-hour ^51Cr cytotoxicity assay of CD19 CAR NK cells treated with ciliobrevin D (12.5, 25, and 50 μM) or DMSO control. Daoy-CD19 cells were used as inciting target cells to activate CD19 CAR-bearing NK cells. Wildtype Daoy cells were used as innocent bystander cells to measure the degree of collateral damage caused by non-directional degranulation.
(§1) Similarly, compared to DMSO, ciliobrevin D-treated CD19 CAR NK cells lyse approximately 24%, 39% and 40% more bystander cells at the concentration of 12.5, 25 and 50 μM, respectively (FIG. 22). […] FIG. 23 and FIG. 24 are time-lapse images of videos of control ([…]) and ciliobrevin D-treated ([…]) CD19 CAR T cells. […] In the control group, however, lytic granules converge immediately upon interacting with the target cell and remain tightly clustered until target is killed by the CD19 CAR T cell as indicated by uptake of the SYTOX Blue viability dye.

The test system of data set [2] is NK92 cells. Put plainly: Standard 4-hour 51Cr cytotoxicity assay. The conditions noted are these: ciliobrevin D 100 μM vs DMSO. In kind it is cell-based, human. How it is done: (§2) FIGS. 13A-13E. The effect of ciliobrevin D on degranulation and the increase of bystander killing by NK cells. Flow cytometry-based degranulation assay of NK cells treated with ciliobrevin D or DMSO as vehicle control. 721.221 cells were used as targets for YTS cells and K562 cells were used as targets for NK92 and eNK cells. DMSO or ciliobrevin D-treated NK cells were mixed with their respective target cells and co-cultured at 37° C. for 2 hours in the presence of anti-CD107a antibody, GolgiStop (BD) and analyzed using flow cytometry. Numbers in the representative flow cytometry plots indicate the percentage of CD107a positive eNK (13A), YTS (13B), or NK92 (13C) cells. Standard 4-hour 51Cr cytotoxicity assay of NK cells treated with ciliobrevin D (100 μM) or DMSO control. NK resistant Raji cells were used as innocent bystander cells. […] Bystander killing of Raji cells by YTS (13D, red) and NK92 (13E, red) cells both increased with ciliobrevin D treatment. Representative experiments from three independent experiments for YTS and NK92 cells were shown.
(§3) Because directed degranulation with converged granules promoted killing efficiency, ciliobrevin D was used to physically prevent convergence in a cell that had received a convergence signal. It was considered that this would allow us to abrogate the killing efficiency benefit imparted by lytic granule convergence. In order to measure killing of both the target and bystander cells in a single experiment, flow cytometry-based cytotoxicity assays were performed, wherein each cell line was labeled with a unique fluorescent dye in the presence of media containing SYTOX Blue viability indicator dye. […] The viability of YTS ([…]), NK92 (FIG. 14E, 14H) and eNK (FIG. 14F, 14I) was not affected by DMSO or ciliobrevin D treatments. […] To ask if it promoted more collateral damage by NK cells 51Cr-labeled Raji cells were added (to serve as innocent bystanders) along with unlabeled 721.221 or K562 target cells. […] YTS or NK92 cells co-cultured with 51Cr-labeled Raji cells in the absence of 721.221 or K562 were unable to kill Raji cells (FIG. 14J). […] Convergence therefore serves to protect innocent bystander cells in complex cellular environments.
(§4) Standard 51Cr-release assays were performed as previously described (Orange et al., 2011). Where indicated, 51Cr51-labeled target or “bystander” cells were mixed with unlabeled target or “bystander” cells to test the indirect lysis of targets. For ADCC, Raji cells were incubated with 20 μg/ml of rituximab in complete R10 medium for 20 min at 37° C., and washed three times before adding to eNK cells.
(§5) Where applicable, YTS, NK92 and eNK cells were pretreated with […] ciliobrevin D (Millipore) for 30 min then washed. […]

The subject of data set [3] is YTS cells. Kind of data set: Standard 4-hour 51Cr cytotoxicity assay. The data set is classed as cell-based, human. Particulars: ciliobrevin D 100 μM vs DMSO. Here is the method: as §2, §3, §4, §5
Data set [4] deals with eNK cells. Put plainly: Flow cytometry-based cytotoxicity / bystander killing assay. In kind it is cell-based, human. Here is the method:
as §3
(§6) YTS-CD16, NK92-CD16 and eNK cells were labeled with CellTrace CFSE for 10 min at room temperature, washed, and treated with ciliobrevin D or DMSO control as described below in inhibitors. 721.221 and K562 cells were labeled with cell proliferation dye eFluor 670 for 5 min at room temperature. Raji cells were labeled with PKH-26 according to manufacture's protocol. NK cells were then mixed with the corresponding targets and Raji cells at a final volume of 200 μl complete R10 and incubated at 37° C. for 2 hr. Cells were then labeled with SYTOX Blue viability dye for 5 min at room temperature, washed, and run on LSRFortessa flow cytometer (BD).
(§7) Where applicable, YTS, NK92 and eNK cells were pretreated with […] ciliobrevin D (Millipore) for 30 min then washed. DMSO was used as the vehicle control for all inhibitor experiments. The inhibitor was also added into the co-culture with target cells.

Data set [5] deals with NK92 cells. The description is as above. In kind it is cell-based, human. Here is the method:
as §3, §6, §7

The subject of data set [6] is YTS cells. The data set is described as above. The data set is classed as cell-based, human. How it is done: as §3, §6, §7
For data set [7], the system named is CD19 CAR T cells. Kind of data set: Standard 4-hour 51Cr cytotoxicity assay, bystander killing. In kind it is cell-based. The conditions noted are these: for increase of bystander killing compared to DMSO control: 10:1 effector to target ratio, BV173 bystanders, Daoy-CD19 inciting targets, representative donor. Here is the method:
FIG. 21. Bystander killing with increasing amounts of ciliobrevin D in the presence of CD19 CAR-bearing T cells. Standard 4-hour ^51Cr cytotoxicity assay of CD19 CAR T cells treated with ciliobrevin D (25, 50 and 100 μM) or DMSO control. CD19-expressing Daoy cells (Daoy-CD19, a medulloblastoma cell line engineered to express CD19) were used as inciting target cells to trigger the activation of CD19 CAR-bearing T cells. BV173 cells, a human acute lymphoblastic leukemia cell line, were used as non-susceptible bystander cells to measure the degree of collateral damage caused by non-directional degranulation.
as §1

Regarding `N#CC(C(=O)c1ccc(Cl)cc1Cl)=C1NC(=O)c2ccc(Cl)cc2N1` [ciliobrevin D, 2-(7-chloro-4-oxo-3,4-dihydroquinazolin-2(1H)-ylidene)-3-(2,4-dichlorophenyl)-3-oxopropanenitrile], the figures for the “more bystander cells lysed compared to DMSO” value in data set [1] (12.5 μM), in data set [1] (25 μM) and in data set [1] (50 μM) were “approximately 24%”, approximately 39% and approximately 40%, respectively. Besides, the “non-specific lysis of Daoy cells” value in data set [1] (12.5, 25 and 50 μM vs DMSO) is given as “dose-dependent increases”. The “lysis of susceptible target cells (51Cr release)” value in data set [2] (NK92 against K562) was “did not substantively alter total killing; also recorded: not affected”; in data set [3] (YTS against 721.221), “did not substantively alter total killing; also recorded: slightly increased”. The “non-specific lysis (bystander killing) of 51Cr-labeled Raji cells” value in data set [2] (NK92 with unlabeled K562 targets) and in data set [3] (YTS with unlabeled 721.221 targets) was “more non-specific lysis; also recorded: increased” in each case. Further, the “specific lysis of susceptible target cells” value in data set [4] (eNK against K562, Raji bystander cells added, vs DMSO) is “no change in killing; also recorded: not affected”; in data set [5] (NK92 against K562, Raji bystander cells added, vs DMSO), “no change in killing; also recorded: not affected”; in data set [6] (YTS against 721.221, Raji bystander cells added, vs DMSO), “no change in killing; also recorded: not affected”. For the same compound, the “killing of susceptible target cells” value in data set [4] (eNK against K562, absence of Raji bystander cells, vs DMSO) was “did not affect killing; also recorded: not affected”; in data set [5] (NK92 against K562, absence of Raji bystander cells, vs DMSO), “did not affect killing; also recorded: not affected”; in data set [6] (YTS against 721.221, absence of Raji bystander cells, vs DMSO) it was “did not affect killing; also recorded: not affected”. Besides, the “non-specific lysis (bystander killing) of Raji cells” value in data set [4] (eNK with K562 inciting targets, vs DMSO) is “killing of the bystander Raji cells in a dose-dependent manner; also recorded: increased”; in data set [5] (NK92 with K562 inciting targets, vs DMSO) it was “killing of the bystander Raji cells in a dose-dependent manner; also recorded: increased”; in data set [6] (YTS with 721.221 inciting targets, vs DMSO), “killing of the bystander Raji cells in a dose-dependent manner; also recorded: increased”. The “viability of NK cells” value in data set [4] (eNK, standard cytotoxicity and bystander killing assays) is reported as “not affected; also recorded: not different”; in data set [5] (NK92, standard cytotoxicity and bystander killing assays), “not affected; also recorded: not different”; in data set [6] (YTS, standard cytotoxicity and bystander killing assays), “not affected; also recorded: not different”. The results for the “increase of bystander killing compared to DMSO control” value in data set [7] (25 μM), in data set [7] (50 μM) and in data set [7] (100 μM) were “approximately 48%”, approximately 71% and approximately 90%, respectively. Besides, the “non-specific lysis of BV173 cells” value in data set [7] (25, 50 and 100 μM, each effector to target ratio, vs DMSO) is “dose-dependent increases”.
